Measured values published in patent publication US9957271B2, “Substituted bicyclic aza-heterocycles and analogues as sirtuin modulators” (GlaxoSmithKline, LLC, priority 2012, dated 2018).
Where two headings read alike, the source gives them in different places.

Target: T1, SIRT1 (Homo sapiens, UniProt Q96EB6)
T1 sequence (Q96EB6 1-747): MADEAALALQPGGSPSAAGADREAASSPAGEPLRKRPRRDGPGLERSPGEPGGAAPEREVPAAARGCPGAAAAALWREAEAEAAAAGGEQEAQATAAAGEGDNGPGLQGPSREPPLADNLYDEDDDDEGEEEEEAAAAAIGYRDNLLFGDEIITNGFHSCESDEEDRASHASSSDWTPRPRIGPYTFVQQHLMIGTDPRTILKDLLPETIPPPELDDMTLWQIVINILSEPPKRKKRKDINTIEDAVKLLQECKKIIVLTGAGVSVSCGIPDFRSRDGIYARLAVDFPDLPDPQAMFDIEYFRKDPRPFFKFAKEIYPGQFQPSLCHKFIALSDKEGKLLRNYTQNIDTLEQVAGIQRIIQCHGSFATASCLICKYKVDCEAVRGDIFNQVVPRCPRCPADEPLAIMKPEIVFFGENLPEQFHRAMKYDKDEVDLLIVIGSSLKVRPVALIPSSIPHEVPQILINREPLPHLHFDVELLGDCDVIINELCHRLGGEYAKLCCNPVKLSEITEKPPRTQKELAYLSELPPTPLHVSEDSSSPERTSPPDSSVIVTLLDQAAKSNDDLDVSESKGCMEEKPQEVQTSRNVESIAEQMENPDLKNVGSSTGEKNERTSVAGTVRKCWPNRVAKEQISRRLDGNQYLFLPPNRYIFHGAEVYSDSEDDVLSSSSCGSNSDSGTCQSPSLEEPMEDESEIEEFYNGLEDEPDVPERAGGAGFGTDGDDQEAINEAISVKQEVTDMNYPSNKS
Assay: Trp mass spectrometry assay of SIRT1 activity
Format: biochemical
Conditions: for Emax: read-out: Trp % Fold Act; for Trp EC1.5 (μM): concentration giving 150% activation of SIRT1
Source text: Mass spectrometry based assays were used to identify modulators of SIRT1 activity. The TAMRA based assay utilized a peptide having 20 amino acid residues as follows: Ac-EE-K(biotin)-[…](Ac)NleSTEG-K(5TMR)-EE-NH2 (SEQ ID NO: 1), wherein K(Ac) is an acetylated lysine residue and Nle is a norleucine. The peptide was labeled with the fluorophore 5TMR (excitation 540 nm/emission 580 nm) at the C-terminus. The sequence of the peptide substrate was based on p53 with several modifications. In addition, the methionine residue naturally present in the sequence was replaced with the norleucine because the methionine may be susceptible to oxidation during synthesis and purification. The Trp based assay utilized a peptide having an amino acid residues as follows: Ac-R-H-K-K(Ac)-W-NH2 (SEQ ID NO: 2).
The Trp mass spectrometry assay was conducted as follows. 0.5 μM peptide substrate and 120 μM βNAD^+ were incubated with 10 nM SIRT1 for 25 minutes at 25° C. in a reaction buffer (50 mM HEPES pH 7.5, […], 1 mM DTT, 0.05% BSA). The SIRT1 protein was obtained by cloning the SirT1 gene into a T7-promoter containing vector, which was then expressed in BL21(DE3) bacterial cells and purified as described in further detail below. Test compound was added at varying concentrations to this reaction mixture and the resulting reactions were monitored. After the 25 minute incubation with SIRT1, 10 μL of 10% formic acid was added to stop the reaction. The resulting reactions were sealed and frozen for later mass spec analysis. The relative SIRT1 activity was then determined by measuring the amount of O-acetyl-ADP-ribose (OAADPR) formed (or, alternatively, the amount of deacetylated Trp peptide generated) by the NAD-dependent sirtuin deacetylation reaction in the presence of varying concentrations of the test compound versus control reactions lacking the test compound. The degree to which the test agent activated deacetylation by SIRT1 was expressed as EC1.5 (i.e., the concentration of compound required to increase SIRT1 activity by 50% over the control lacking test compound), and Percent Maximum Activation (i.e., the maximum activity relative to control (100%) obtained for the test compound).
A control for inhibition of sirtuin activity was conducted by adding 1 μL of 500 mM nicotinamide as a negative control at the start of the reaction (e.g., permits determination of maximum sirtuin inhibition). A control for activation of sirtuin activity was conducted using 10 nM of sirtuin protein, with 1 μL of DMSO in place of compound, to determine the amount of deacetylation of the substrate at a given time point within the linear range of the assay. This time point was the same as that used for test compounds and, within the linear range, the endpoint represents a change in velocity.
For the above assay, SIRT1 protein was expressed and purified as follows. The SirT1 gene was cloned into a T7-promoter containing vector and transformed into BL21(DE3). The protein was expressed by induction with 1 mM IPTG as an N-terminal His-tag fusion protein at 18° C. overnight and harvested at 30,000×g. Cells were lysed with lysozyme in lysis buffer (50 mM Tris-HCl, 2 mM Tris[2-carboxyethyl]phosphine (TCEP), 10 μM ZnCl2, 200 mM NaCl) and further treated with sonication for […] for complete lysis. The protein was purified over a Ni-NTA column (Amersham) and fractions containing pure protein were pooled, concentrated and run over a sizing column (Sephadex S200 26/60 global). The peak containing soluble protein was collected and run on an Ion-exchange column (MonoQ). Gradient elution (200 mM-500 mM NaCl) yielded pure protein. This protein was concentrated and dialyzed against dialysis buffer (20 mM Tris-HCl, 2 mM TCEP) overnight. The protein was aliquoted and frozen at −80° C. until further use.

[1] = percent maximum fold activation of SIRT1, Trp peptide substrate
[2] = Trp assay, percent maximum fold activation

Compound	Emax [1]	Trp EC1.5 (μM) (Trp assay)	Emax [2]
CN(C)[C@H]1CCN(c2ccc3ncc(C(=O)Nc4cccnn4)n3n2)C1 [Compound 879]	–	B (EC1.5 1-25 μM)	< 350%
O=C(Nc1cccnc1)c1cnc2ccc(N3CCCC(C(F)(F)F)C3)nn12 (stereo not shown) [Compound 932]	–	A (EC1.5<1 μM)	≥ 350%
O=C(Nc1ccc(F)cn1)c1cnc2ccc(N3CC[C@H](F)C3)nn12 [Compound 838]	–	B (EC1.5 1-25 μM)	< 350%
CN1CCN(c2ccc3ncc(C(=O)Nc4cccnn4)n3n2)CC1 [Compound 950]	–	–	< 350%
O=C(Nc1ccncc1F)c1cnc2ccc(N3CC(F)(F)C3)nn12 [Compound 915]	–	C (EC1.5>25 μM)	< 350%
Cc1nc2ccc(N3CC[C@H](N(C)C)C3)nn2c1C(=O)Nc1ccncn1 [Compound 881]	–	C (EC1.5>25 μM)	< 350%
CC1CCN(c2ccc3ncc(C(=O)Nc4cccnn4)n3n2)C1 (stereo not shown) [Compound 978]	–	–	≥ 350%
O=C(Nc1ccncc1F)c1cnc2ccc(N3CCC(F)(F)CC3)nn12 [Compound 963]	–	–	< 350%
O=C(Nc1cncc(F)c1)c1cnc2ccc(N3CC[C@H](F)C3)nn12 [Compound 890]	–	B (EC1.5 1-25 μM)	< 350%
CC1CCN(c2ccc3ncc(C(=O)Nc4cncc(F)c4)n3n2)C1 (stereo not shown) [Compound 979]	–	–	≥ 350%
O=C(Nc1ncccn1)c1cnc2ccc(N3CC[C@H](F)C3)nn12 [Compound 854]	–	B (EC1.5 1-25 μM)	< 350%
Cc1nc2ccc(N3CC[C@H](F)C3)nn2c1C(=O)Nc1ncccn1 [Compound 852]	–	B (EC1.5 1-25 μM)	≥ 350%
Cc1nc2ccc(N3CC[C@H](F)C3)nn2c1C(=O)Nc1ccncc1F [Compound 846]	–	A (EC1.5<1 μM)	< 350%
Cc1nc(NC(=O)c2cnc3ccc(N4CC[C@H](F)C4)nn23)sc1C [Compound 892]	–	A (EC1.5<1 μM)	< 350%
CO[C@H]1CCN(c2ccc3ncc(C(=O)Nc4ccccn4)n3n2)C1 [Compound 933]	–	B (EC1.5 1-25 μM)	< 350%
O=C(Nc1ccccn1)c1cnc2ccc(N3CC[C@H](F)C3)nn12 [Compound 836]	–	B (EC1.5 1-25 μM)	≥ 350%
COc1cc(NC(=O)c2cnc3ccc(N4CC[C@H](F)C4)nn23)ncn1 [Compound 922]	–	C (EC1.5>25 μM)	< 350%
Cc1nc2ccc(N3CC[C@H](F)C3)nn2c1C(=O)Nc1cccnn1 [Compound 857]	–	A (EC1.5<1 μM)	≥ 350%
O=C(Nc1cccnc1)c1cnc2ccc(N3CC[C@H](O)C3)nn12 [Compound 982]	–	–	< 350%
O=C(Nc1ccc(F)cn1)c1cnc2ccc(N3CC[C@H](O)C3)nn12 [Compound 983]	–	–	< 350%
O=C(Nc1ccncc1F)c1cnc2ccc(N3CCC(F)(F)C3)nn12 [Compound 903]	–	C (EC1.5>25 μM)	< 350%
Cc1cc(NC(=O)c2c(C)nc3c(OC[C@H](O)CO)cc(-c4ccccc4C(F)(F)F)nn23)cc(C)n1 [Compound 860]	–	A (EC1.5<1 μM)	≥ 350%
Cc1nc2ccc(N3CC[C@H](N(C)C)C3)nn2c1C(=O)Nc1ccc(F)cn1 [Compound 872]	–	C (EC1.5>25 μM)	< 350%
CN(C)[C@H]1CCN(c2ccc3ncc(C(=O)Nc4ccc(F)cn4)n3n2)C1 [Compound 874]	–	A (EC1.5<1 μM)	< 350%
O=C(Nc1cccnc1)c1cnn2ccc(N3CCCC(C(F)(F)F)C3)nc12 (stereo not shown) [Compound 1007]	≥ 350%	–	–
Cc1nc2ccc(N3CC[C@H](N(C)C)C3)nn2c1C(=O)Nc1ccncc1F [Compound 870]	–	C (EC1.5>25 μM)	< 350%
Cc1nc2ccc(N3CC[C@H](N(C)C)C3)nn2c1C(=O)Nc1cccnc1 [Compound 877]	–	B (EC1.5 1-25 μM)	< 350%

Next, values leading:

Emax [1]	Trp EC1.5 (μM) (Trp assay)	Emax [2]	Compound
≥ 350%	–	–	Cc1nc2ccc(N3CCC[C@H]3C(F)(F)F)nn2c1C(=O)Nc1cccnc1 [Compound 1016]
≥ 350%	–	–	Cc1nc2ccc(N3CCC[C@H]3C(F)(F)F)nn2c1C(=O)Nc1cccnn1 [Compound 1018]
≥ 350%	–	–	O=C(Nc1cccc(-c2cnco2)n1)c1cnn2ccc(N3CCC[C@@H]3C(F)(F)F)nc12 [Compound 1081]
≥ 350%	–	–	Cc1nn2ccc(N3CCC[C@H]3C(F)(F)F)nc2c1C(=O)Nc1ccccn1 [Compound 1035]
≥ 350%	–	–	O=C(Nc1cccnc1)c1cnc2ccc(N3CCC[C@@H]3C(F)(F)F)nn12 [Compound 1019]
≥ 350%	–	–	Cc1nn2ccc(N3CCC[C@H]3C(F)(F)F)nc2c1C(=O)Nc1cncc(F)c1 [Compound 1050]
≥ 350%	–	–	Cc1nc(NC(=O)c2cnn3ccc(N4CCC(C(F)(F)F)CC4)nc23)sc1C [Compound 1065]
≥ 350%	–	–	O=C(Nc1cccnn1)c1cnn2ccc(N3CCCC3C(F)(F)F)nc12 (stereo not shown) [Compound 1022]
≥ 350%	–	–	O=C(Nc1cccnn1)c1cnn2ccc(N3CCC[C@H]3C(F)(F)F)nc12 [Compound 1030]
≥ 350%	–	–	Cc1nn2ccc(N3CCC[C@@H]3C(F)(F)F)nc2c1C(=O)Nc1ccccn1 [Compound 1070]
≥ 350%	–	–	Cc1nn2ccc(N3CCC[C@@H]3C(F)(F)F)nc2c1C(=O)Nc1cccc(-c2cnco2)n1 [Compound 1086]
≥ 350%	–	–	O=C(Nc1ccccn1)c1cnn2ccc(N3CCCC(C(F)(F)F)C3)nc12 (stereo not shown) [Compound 1008]
≥ 350%	–	–	Cc1nc(NC(=O)c2cnn3ccc(N4CCC[C@@H]4C(F)(F)F)nc23)sc1C [Compound 1088]
≥ 350%	–	–	O=C(Nc1ccncn1)c1cnn2ccc(N3CCC[C@H]3C(F)(F)F)nc12 [Compound 1025]
≥ 350%	–	–	CC1CCCN1c1ccn2ncc(C(=O)Nc3cncc(F)c3)c2n1 (stereo not shown) [Compound 1039]
≥ 350%	–	–	COc1nccc(NC(=O)c2c(C)nn3ccc(N4CCC[C@@H]4C(F)(F)F)nc23)n1 [Compound 1085]
≥ 350%	–	–	Cc1nn2ccc(N3CCC[C@@H]3C(F)(F)F)nc2c1C(=O)Nc1cc(-c2cnco2)ccn1 [Compound 1087]
≥ 350%	–	–	O=C(Nc1cncc(F)c1)c1cnn2ccc(N3CCC(C(F)(F)F)C3)nc12 (stereo not shown) [Compound 1013]
≥ 350%	–	–	COc1nccc(NC(=O)c2cnn3ccc(N4CCC[C@H]4C(F)(F)F)nc23)n1 [Compound 1024]
≥ 350%	–	–	Cc1nn2ccc(N3CCC[C@H]3C(F)(F)F)nc2c1C(=O)Nc1ccncn1 [Compound 1048]
